In US20250152660A1, “SCO-spondin-derived polypeptides for treating biological barriers dysfunction” (AXOLTIS PHARMA, priority 2021, published 2025):
Values joined by “and” are separate entries in the source; they are usually repeats but may differ in a detail not shown here. Equal entries are not always repeated. Bridges are numbered along the chain shown (N, C = ends). Where no end group is shown, it is not given here.

Key:
[1] = tested on: Claudin-5 at tight junction of mouse brain endothelial bEnd.3 cells; test: Claudin-5 immunocytochemistry at tight junction in mouse brain endothelial cell cultures; format: cell-based
Protocol: To understand the effect of NX218 on the TEER and permeability of mouse brain endothelial cells in examples 3 and 4, the levels of the tight junction protein Claudin-5 were assessed using immunocytochemistry.
Mouse brain endothelial cells (bEnd.3, American Type Culture Collection) were cultured in DMEM supplemented with 10% fetal FBS and 2 mM sodium pyruvate in a 5% CO2 incubator at 37° C.
bEnd.3 cells were seeded on 1% fibronectin-coated Nunc Lab-Tek II Chamber Slides in culture medium (1×10^5 cells per well in 300 μL). Two days after seeding, cells were treated with vehicle or NX218 (1, 10 and 100 μM) for 1, 2 or 3 days. Cells were then fixed for 10 min at room temperature (RT) with 4% paraformaldehyde in phosphate buffered saline (PBS), washed twice with PBS and incubated with 5% normal goat serum and 0.05% Triton X-100 in PBS for 1 h at RT before overnight incubation with polyclonal rabbit anti-claudin-5 ( 1/100; 34-1600, Invitrogen) at 4° C. Cells were then washed three times with PBS and incubated with goat anti-rabbit Cy3 secondary antibody ( 1/500; ab6939, Abcam) for 2 h at RT and counterstained with Hoechst 33258 to visualize nuclei. The slide was removed from the chamber and mounted with Aqua Poly/Mount before visualization by confocal laser scanning/microscopy. Claudin-5 immunoreactivity (intensity) at membrane localization was finally quantified to evaluate Claudin-5 protein levels. The data are expressed as a percentage of the control condition.
A second independent experiment using the protocol described at example 5 was performed. Pooling the data from the 2 experiments (the first experiment was done in triplicate, the 2nd in duplicate, n=5) improves the statistical power and allow to reach statistical significance for a tendency observed at 72 hours timepoint.

[2] = tested on: primary human umbilical vein endothelial cells (HUVEC); test: Transendothelial electrical resistance (TEER) of primary human umbilical vein endothelial cell monolayer; format: cell-based; conditions: for TEER change relative to control, Average: average of N1-N9, control = 100; for TEER change relative to control: control average = 100, individual replicates N1-N9
Protocol: To determine the effect of NX218 on transendothelial electrical resistance (TEER) of primary human umbilical vein endothelial cells (HUVEC), cells were grown on a semi-permeable membrane inserted in culture wells in presence or absence of NX218 and the TEER was recorded using electrodes placed on each side of the membrane and a resistance meter.
HUVEC (PromoCell, C-12208) were cultured in EBM-2 basal media supplemented with bullet kit reagents (both from Lonza) in a 5% CO2 incubator at 37° C.
HUVEC were grown on 6.5-mm-diameter, 0.4-μm-pore, polyester membrane HTS Transwell inserts (5×10^4 cells per well containing 200 μL and 800 μL of culture medium in the apical and basolateral compartments respectively). Two days after seeding, cells were treated with vehicle or NX218 (1, 10 and 100 μM) for 1 or 3 days. TEER values were measured using an EVOM resistance meter fitted with “chopstick” electrodes. One electrode was placed in the apical chamber and another one in the basolateral chamber. Before measurements, chambers were replaced with fresh medium.

W-S-G-W-S-S-C-S-R-S-C-G (WSGWSSCSRSCG; disulfide 7-11 (inferred)) [NX218]
Expression of Claudin-5 at tight junction ([1]; NX218 10 μM, 24 hours, bEnd.3, individual replicates N1-N6): 126.9 % of Control and 154.4 % of Control and 137 % of Control and 121.3 % of Control and 169.4 % of Control and 200.9 % of Control | Expression of Claudin-5 at tight junction, Average ([1]; NX218 10 μM, 48 hours, bEnd.3, average of N1-N6): 97.8 % of Control | Expression of Claudin-5 at tight junction ([1]; NX218 10 μM, 48 hours, bEnd.3, individual replicates N1-N6): 66.36 % of Control and 83.18 % of Control and 120.8 % of Control and 145.7 % of Control and 97.51 % of Control and 73.25 % of Control | Expression of Claudin-5 at tight junction, Average ([1]; NX218 10 μM, 72 hours, bEnd.3, first experiment (Table 9), average of N1-N4): 70.23 % of Control | Expression of Claudin-5 at tight junction ([1]; NX218 10 μM, 72 hours, bEnd.3, first experiment (Table 9), individual replicates N1-N4): 56.03 % of Control and 94.63 % of Control and 58.42 % of Control and 71.86 % of Control | Expression of Claudin-5 at tight junction, Average ([1]; NX218 10 μM, 72 hours, bEnd.3, pooled data of 2 experiments (Table 12), average of N1-N7): 97.80 % of Control | Expression of Claudin-5 at tight junction ([1]; NX218 10 μM, 72 hours, bEnd.3, pooled data of 2 experiments (Table 12), individual replicates N1-N7): 71.70 % of Control and 116.80 % of Control and 122.30 % of Control and 113.50 % of Control and 97.80 % of Control and 75.30 % of Control and 87.00 % of Control | Expression of Claudin-5 at tight junction, Average ([1]; NX218 100 μM, 24 hours, bEnd.3, average of N1-N6): 180.5 % of Control | Expression of Claudin-5 at tight junction ([1]; NX218 100 μM, 24 hours, bEnd.3, individual replicates N1-N6): 173.3 % of Control and 212.5 % of Control and 249.5 % of Control and 129 % of Control and 161.7 % of Control and 157.1 % of Control | Expression of Claudin-5 at tight junction, Average ([1]; NX218 100 μM, 48 hours, bEnd.3, average of N1-N6): 98.79 % of Control | Expression of Claudin-5 at tight junction ([1]; NX218 100 μM, 48 hours, bEnd.3, individual replicates N1-N6): 88.39 % of Control and 55.18 % of Control and 80.87 % of Control and 122.7 % of Control and 115.5 % of Control and 130.1 % of Control | Expression of Claudin-5 at tight junction, Average ([1]; NX218 100 μM, 72 hours, bEnd.3, first experiment (Table 9), average of N1-N4): 106.6 % of Control | Expression of Claudin-5 at tight junction ([1]; NX218 100 μM, 72 hours, bEnd.3, first experiment (Table 9), individual replicates N1-N4): 121.8 % of Control and 116 % of Control and 81.03 % of Control and 107.7 % of Control | Expression of Claudin-5 at tight junction, Average ([1]; NX218 100 μM, 72 hours, bEnd.3, pooled data of 2 experiments (Table 12), average of N1-N7): 119.10 % of Control | Expression of Claudin-5 at tight junction ([1]; NX218 100 μM, 72 hours, bEnd.3, pooled data of 2 experiments (Table 12), individual replicates N1-N7): 134.20 % of Control and 124.40 % of Control and 109.30 % of Control and 120.30 % of Control and 130.70 % of Control and 105.10 % of Control and 109.40 % of Control | Claudin-5 levels, result in words ([1]; NX218 at 100 μM, pooled experiments, 72 hours): Increases of Claudin-5 levels were maintained for at-least 72 hours | Claudin-5 levels, result in words ([1]; after 2 or 3 days treatment (Tables 8, 9)): levels were similar between control and NX218 conditions | TEER change relative to control, Average ([2]; NX218 1 μM, 24 hours): 104 | TEER change relative to control ([2]; NX218 1 μM, 24 hours): 101.3 (3×) and 95.36 (2×) and 89.4 and 119.2 (2×) and 113.2 | TEER change relative to control, Average ([2]; NX218 1 μM, 72 hours): 101.1 | TEER change relative to control ([2]; NX218 1 μM, 72 hours): 113.1 (2×) and 97.71 and 87.43 and 82.29 and 92.57 and 123.4 and 128.6 and 72 | TEER change relative to control, Average ([2]; NX218 10 μM, 24 hours): 119.2 | TEER change relative to control ([2]; NX218 10 μM, 24 hours): 101.3 (2×) and 119.2 and 149 (2×) and 143 and 89.4 and 113.2 and 107.3 | TEER change relative to control, Average ([2]; NX218 10 μM, 72 hours): 109.7 | TEER change relative to control ([2]; NX218 10 μM, 72 hours): 97.71 and 118.3 and 123.4 and 87.43 and 102.9 and 108 (2×) and 128.6 and 113.1 | TEER change relative to control, Average ([2]; NX218 100 μM, 24 hours): 158.9 | TEER change relative to control ([2]; NX218 100 μM, 24 hours): 137.1 and 149 and 143 (2×) and 172.8 and 184.8 (2×) and 155 and 160.9 | TEER change relative to control, Average ([2]; NX218 100 μM, 72 hours): 131.4 | TEER change relative to control ([2]; NX218 100 μM, 72 hours): 144 (2×) and 138.9 and 108 (2×) and 123.4 and 133.7 and 154.3 and 128.6 | Resistance (TEER), result in words ([2]; NX218 at 100 μM for 1 or 3 days, compared with vehicle): significantly increased in a dose dependent manner
